In publication PMC5433425 (PeerJ, 2017):
≈ marks a conversion by molar mass, not a printed value.

Assays:
[1] = tested on: Mycobacterium tuberculosis H37Rv ATCC27294T; assay: MIC, antibacterial specificity; type: cell-based
[2] = tested on: Acinetobacter baumannii ATCC19606T; assay: MIC, antibacterial specificity; type: cell-based

Work on `CCCOc1ccc(-c2cc(OCCN3CCNCC3)c3ccccc3n2)cc1` [PQQ4R, 4-(2-(piperazin-1-yl)ethoxy)-2-(4-propoxyphenyl) quinolone] yielded an MIC [1] of 32 µg/mL (≈ 81.7 µM) and an MIC [2] of 128 µg/mL (≈ 327 µM).
